Test results: US20250262201A1, “COMPOUNDS AND METHODS USEFUL FOR STABILIZING PHENYLALANINE HYDROXYLASE MUTATIONS” (Agios Pharmaceuticals, Inc., priority 2022, published 2025)

target: T1, human PAH with the R408W mutation (Homo sapiens, UniProt P00439, R408W); test: Cell Based Phenylalanine Flux Assay; design: scale not given here; settings: not given
T1 construct: expressed in transfected cells
T1 sequence (P00439 1-452 R408W): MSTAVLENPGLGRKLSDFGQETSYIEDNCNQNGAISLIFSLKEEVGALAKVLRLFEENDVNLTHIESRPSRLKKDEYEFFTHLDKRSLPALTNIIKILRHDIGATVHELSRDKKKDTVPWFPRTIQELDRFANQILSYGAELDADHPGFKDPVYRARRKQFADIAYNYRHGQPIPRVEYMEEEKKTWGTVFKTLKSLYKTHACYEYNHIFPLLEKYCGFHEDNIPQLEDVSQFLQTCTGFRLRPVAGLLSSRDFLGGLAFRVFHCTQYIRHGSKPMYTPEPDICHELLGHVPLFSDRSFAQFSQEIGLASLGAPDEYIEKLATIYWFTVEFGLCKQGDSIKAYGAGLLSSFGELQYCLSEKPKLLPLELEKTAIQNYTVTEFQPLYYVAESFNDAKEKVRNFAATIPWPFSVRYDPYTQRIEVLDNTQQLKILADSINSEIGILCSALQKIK

Row | AC50 [nM] | SMILES
1 | 1000 to 5000 | Cn1ncc(C(=O)N2CCc3[nH]cnc3C2c2ccc3ccccc3n2)c1C(F)F (centres unmarked)

same assay, conditions: A375 R408W cells, 24 hrs with compound, then 20 μM sepiapterin and 800 μM 13C9,15N-Phenylalanine for 4 hours; 13C-Tyrosine by LC-MS; average where tested multiple times

Row | SMILES | AC50
2 | O=C(c1ocnc1C(F)F)N1CCc2[nH]cnc2C1c1ncc2ccccc2n1 (centres unmarked) | E, E
3 | Cc1nc(C(F)(F)F)c(C(=O)N2CCc3nc[nH]c3[C@@H]2c2cn3ccccc3n2)o1 (single isomer, unassigned) | E, E

same assay, conditions: A375 R408W cells, 24 hrs with compound, then 20 μM sepiapterin and 800 μM 13C9,15N-Phenylalanine for 4 hours; 13C-Tyrosine by LC-MS; average where tested multiple times; read-out: AC50

Row | AC50 [nM] | SMILES
4 | > 5000 | CC1CN(C(=O)c2nnc(N3CCOCC3)o2)C(c2cc3ccccc3cn2)c2nc[nH]c21 (centres unmarked)
5 | 1000 to 5000 | O=C(c1ocnc1C(F)F)N1CCc2nc[nH]c2C1c1cn2ccccc2n1 (centres unmarked)
6 | 1000 to 5000 | O=C(c1oc(-c2ccccn2)nc1C1CC1)N1CCc2nc[nH]c2C1c1cn2ccccc2n1 (centres unmarked)
7 | 1000 to 5000 | COC(=O)N1CC(C(=O)N2CCc3[nH]cnc3[C@H]2c2cc3ccccc3cn2)C1
8 | 1000 to 5000 | Cn1cc(-c2nc(C3CC3)c(C(=O)N3CCCc4[nH]cnc4C3c3cc4ccccc4cn3)o2)cn1 (centres unmarked)
9 | 1000 to 5000 | O=C(C1CC1)N1CCc2[nH]cnc2C1c1ccc2ccccc2n1 (centres unmarked)
10 | 1000 to 5000 | Cc1nnc(C(=O)N2CCc3[nH]cnc3C2c2cn3ccccc3n2)o1 (centres unmarked)
11 | 1000 to 5000 | O=C(c1ocnc1C(F)F)N1CCc2[nH]cnc2C1c1cc2ccccc2nn1 (centres unmarked)
12 | > 5000 | FC(F)c1nnc(N2CCc3[nH]cnc3[C@H]2c2ccc3ccccc3n2)o1 (single isomer, unassigned)
13 | > 5000 | O=C(Cc1coc(C(F)F)n1)N1CCc2nc[nH]c2[C@H]1c1cn2ccccc2n1 (single isomer, unassigned)

Row | SMILES | AC50 [nM]
14 | CC(C)(O)c1ncc(C(=O)N2CCc3[nH]cnc3[C@H]2c2cn3ccccc3n2)o1 (single isomer, unassigned) | > 5000
15 | COCc1ncc(C(=O)N2CCc3[nH]cnc3[C@H]2c2cn3ccccc3n2)s1 (single isomer, unassigned) | > 5000

same assay, conditions: A375 cells expressing human R408W PAH; 24 hrs compound incubation; 13C-Tyrosine by LC-MS; average where tested multiple times; read-out: AC50

Row | AC50 [nM] | SMILES
16 | 1000 to 5000 | C[C@@H]1CN(C(=O)c2nnc(-c3ccc(F)cn3)o2)[C@H](c2cc3ccccc3cn2)c2nc[nH]c21 [Example 494, (5-(5-fluoropyridin-2-yl)-1,3,4-oxadiazol-2-yl)((4R,7R)-4-(isoquinolin-3-yl)-7-methyl-6,7-dihydro-1H-imidazo[4,5-c]pyridin-5(4H)-yl)methanone]
17 | < 500 | CC(C)(C)c1ncc(C(=O)N2CCc3[nH]cnc3C2c2ccc3ccccc3n2)o1 (stereo in doubt) [Example 258, (R)-(2-(tert-butyl)oxazol-5-yl)(4-(quinolin-2-yl)-6,7-dihydro-1H-imidazo[4,5-c]pyridin-5(4H)-yl)methanone]
18 | 500 to 1000 | COCc1ncc(C(=O)N2CCc3[nH]cnc3[C@H]2c2cc3ccccc3cn2)s1 [Example 393, (R)-(4-(isoquinolin-3-yl)-6,7-dihydro-1H-imidazo[4,5-c]pyridin-5(4H)-yl)(2-(methoxymethyl)thiazol-5-yl)methanone]
19 | < 500 | O=C(Cc1nncs1)N1CCc2[nH]cnc2[C@H]1c1cc2ccccc2cn1 [Example 349, (R)-1-(4-(isoquinolin-3-yl)-6,7-dihydro-1H-imidazo[4,5-c]pyridin-5(4H)-yl)-2-(1,3,4-thiadiazol-2-yl)ethanone]
20 | < 500 | O=C(c1cnn2cc(Br)c(Cl)cc12)N1CCc2[nH]cnc2[C@H]1c1cc2ccccc2cn1 [Example 459, (R)-(6-bromo-5-chloropyrazolo[1,5-a]pyridin-3-yl)(4-(isoquinolin-3-yl)-6,7-dihydro-1H-imidazo[4,5-c]pyridin-5(4H)-yl)methanone]
21 | < 500 | O=C(c1nnc(-c2ncccc2F)o1)N1CCc2[nH]cnc2[C@H]1c1cc2ccccc2cn1 [Example 437, (R)-(5-(3-fluoropyridin-2-yl)-1,3,4-oxadiazol-2-yl)(4-(isoquinolin-3-yl)-6,7-dihydro-1H-imidazo[4,5-c]pyridin-5(4H)-yl)methanone]
22 | 1000 to 5000 | O=C(c1nnc(N2CCC(F)CC2)o1)N1CCc2[nH]cnc2[C@H]1c1ncc2ccccc2n1 [Example 159, (S)-(5-(4-fluoropiperidin-1-yl)-1,3,4-oxadiazol-2-yl)(4-(quinazolin-2-yl)-6,7-dihydro-1H-imidazo[4,5-c]pyridin-5(4H)-yl)methanone]
23 | 500 to 1000 | CC(C)(F)c1nnc(C(=O)N2CCc3[nH]cnc3[C@H]2c2ncc3ccccc3n2)o1 [Example 161, (S)-(5-(2-fluoropropan-2-yl)-1,3,4-oxadiazol-2-yl)(4-(quinazolin-2-yl)-6,7-dihydro-1H-imidazo[4,5-c]pyridin-5(4H)-yl)methanone]
24 | 500 to 1000 | CN(C)C(=O)c1nnc(N2CCc3[nH]cnc3[C@H]2c2cc3ccccc3cn2)o1 [Example 363, (R)-5-(4-(isoquinolin-3-yl)-6,7-dihydro-1H-imidazo[4,5-c]pyridin-5(4H)-yl)-N,N-dimethyl-1,3,4-oxadiazole-2-carboxamide]
25 | 500 to 1000 | COc1ccc(-c2nnc(C(=O)N3C[C@H](C)c4[nH]cnc4[C@H]3c3cc4ccccc4cn3)o2)nc1 [Example 516, ((4R,7S)-4-(isoquinolin-3-yl)-7-methyl-6,7-dihydro-1H-imidazo[4,5-c]pyridin-5(4H)-yl)(5-(5-methoxypyridin-2-yl)-1,3,4-oxadiazol-2-yl)methanone]
26 | > 5000 | Cc1nnc(C(=O)N2CCc3[nH]cnc3[C@@H]2c2cc3ccccc3cn2)o1 [Example 319, (S)-(4-(isoquinolin-3-yl)-6,7-dihydro-1H-imidazo[4,5-c]pyridin-5(4H)-yl)(5-methyl-1,3,4-oxadiazol-2-yl)methanone]
27 | < 500 | Cc1nn(C)cc1-c1nnc(C(=O)N2CCc3[nH]cnc3[C@H]2c2cc3ccccc3cn2)o1 [Example 450, (R)-(5-(1,3-dimethyl-1H-pyrazol-4-yl)-1,3,4-oxadiazol-2-yl)(4-(isoquinolin-3-yl)-6,7-dihydro-1H-imidazo[4,5-c]pyridin-5(4H)-yl)methanone]
28 | 1000 to 5000 | O=C(CCc1nnc(C(F)F)o1)N1CCc2[nH]cnc2[C@H]1c1cc2ccccc2cn1 [Example 346, (R)-3-(5-(difluoromethyl)-1,3,4-oxadiazol-2-yl)-1-(4-(isoquinolin-3-yl)-6,7-dihydro-1H-imidazo[4,5-c]pyridin-5(4H)-yl)propan-1-one]
29 | < 500 | Cc1cc(-c2nnc(C(=O)N3CCc4[nH]cnc4[C@H]3c3cc4ccccc4cn3)o2)nn1C [Example 472, (R)-(5-(1,5-dimethyl-1H-pyrazol-3-yl)-1,3,4-oxadiazol-2-yl)(4-(isoquinolin-3-yl)-6,7-dihydro-1H-imidazo[4,5-c]pyridin-5(4H)-yl)methanone]
30 | 1000 to 5000 | C[C@H](O)c1nc(C(F)F)c(C(=O)N2CCc3[nH]cnc3C2c2ccc3ccccc3n2)o1 (stereo in doubt) [Example 121, (4-(difluoromethyl)-2-((S)-1-hydroxyethyl)oxazol-5-yl)((S)-4-(quinolin-2-yl)-6,7-dihydro-1H-imidazo[4,5-c]pyridin-5(4H)-yl)methanone]
31 | 500 to 1000 | Cn1cnc(-c2nnc(C(=O)N3CCc4[nH]cnc4[C@H]3c3ncc4ccccc4n3)o2)c1 [Example 197, (S)-(5-(1-methyl-1H-imidazol-4-yl)-1,3,4-oxadiazol-2-yl)(4-(quinazolin-2-yl)-6,7-dihydro-1H-imidazo[4,5-c]pyridin-5(4H)-yl)methanone]
32 | < 500 | Cn1cc(C(=O)N2CCc3[nH]cnc3C2c2ccc3ccccc3n2)c(C(F)F)n1 (stereo in doubt) [Example 83, (R)-(3-(difluoromethyl)-1-methyl-1H-pyrazol-4-yl)(4-(quinolin-2-yl)-6,7-dihydro-1H-imidazo[4,5-c]pyridin-5(4H)-yl)methanone]
33 | < 500 | O=C(c1nnc(-c2ccc(F)cc2)o1)N1CCc2[nH]cnc2[C@H]1c1cc2ccccc2cn1 [Example 342, (R)-(5-(4-fluorophenyl)-1,3,4-oxadiazol-2-yl)(4-(isoquinolin-3-yl)-6,7-dihydro-1H-imidazo[4,5-c]pyridin-5(4H)-yl)methanone]
34 | > 5000 | O=C(c1cncs1)N1CCc2[nH]cnc2C1c1ccc2ccccc2n1 (stereo in doubt) [Example 6, (S)-(4-(quinolin-2-yl)-6,7-dihydro-1H-imidazo[4,5-c]pyridin-5(4H)-yl)(thiazol-5-yl)methanone]
35 | < 500 | O=C(c1ccnn1C(F)F)N1CCc2[nH]cnc2[C@H]1c1cc2ccccc2nn1 [Example 213, (S)-(4-(cinnolin-3-yl)-6,7-dihydro-1H-imidazo[4,5-c]pyridin-5(4H)-yl)(1-(difluoromethyl)-1H-pyrazol-5-yl)methanone]
36 | < 500 | Cc1nc(-c2ccccn2)oc1C(=O)N1CCc2[nH]cnc2[C@H]1c1ncc2ccccc2n1 [Example 193, (S)-(4-methyl-2-(pyridin-2-yl)oxazol-5-yl)(4-(quinazolin-2-yl)-6,7-dihydro-1H-imidazo[4,5-c]pyridin-5(4H)-yl)methanone]
37 | 1000 to 5000 | C[C@H]1CN(C(=O)c2cnc(C(C)(C)O)o2)[C@@H](c2cc3ccccc3cn2)c2nc[nH]c21 [Example 396, (2-(2-hydroxypropan-2-yl)oxazol-5-yl)((4S,7S)-4-(isoquinolin-3-yl)-7-methyl-6,7-dihydro-1H-imidazo[4,5-c]pyridin-5(4H)-yl)methanone]
38 | > 5000 | O=C(c1nnc(-c2ccc(F)cn2)o1)N1CCc2[nH]cnc2[C@@H]1c1cc2ccccc2cn1 [Example 341, (S)-(5-(5-fluoropyridin-2-yl)-1,3,4-oxadiazol-2-yl)(4-(isoquinolin-3-yl)-6,7-dihydro-1H-imidazo[4,5-c]pyridin-5(4H)-yl)methanone]
